# “And” between values parts separate entries of the source, which are not always exact repeats. Equal entries are not always repeated. “Also recorded” adds a separate entry of the source.
# Experiments:
# [1] = test system: A549-Luc lung cancer cells; experiment: In vivo xenograft tumor model, tumor size by IVIS imaging; design: species or system nude mice; details: for tumor size: individual nude mice, Tnd = tumor not detected, Ex = dead; for tumor outcome after treatment: A549-Luc xenograft nude mice, IVIS imaging; for tumor size initially: before treatment, individual nude mice (1)-(5)
# Procedure: Luc cell line (A549-Luc cell), which has luciferase activity, was used to determine the cancer treatment potential of compounds 3 and 4 for in vivo experiments. Cells were cultured in DMEM Ham’s F12 [10% FBS, 1% L-glutamine, 1% gentamicin, and 1 mM 4-(2-hydroxyethyl)-1-piperazineethanesulfonic acid] broth in a CO2 incubator set at 37 °C. Sufficient stocks were prepared by passaging the cells twice a week, and cells that actively proliferated in the logarithmic phase were used in the tests.
# (§1) Approval for monitoring the cancer treatment potential of the synthesized structures in vivo conditions was taken by the Animal Ethics Committee of Ege University on 24.01.2018 with the number 2018-015. Male atypical nude mice, 6–8 weeks old, were used for in vivo xenograft tumor models. […] For the purpose of xenograft administration, nude mice were injected subcutaneously with 100 μL of 5 × 10^6 A549-Luc cell suspension. The presence of cancer after cell administration to nude mice was followed by imaging with an IVIS device. In order to monitor tumor formation and tumor volume detection, luciferin [Biovision Inc., USA; 12 mg/mL in phosphate-buffered saline (PBS)] was injected intraperitoneally followed by visualization with IVIS 5 min later. When tumor volume reaches about 2000 mm^3, cancerous nudes are divided into three groups: the control group, 3 group, and 4 group. Grouping was made as 3–5 animals in each group. The following procedures were prepared according to the groups, and then they were implemented. In addition, the weights of nude mice were regularly checked and recorded.
# Compound 3(Y) group: Compound 3(Y) was prepared in DMSO at a concentration of 200 μM, and 20 μL was administered via the tail vein in three doses a week.
# Compound 4(X) group: Compound 4(X) was prepared in DMSO at a concentration of 200 μM, and 20 μL was given three doses a week through the tail vein.
# (§2) Male atypical nude mice aged 6–8 weeks are commonly used in in vivo xenograft tumor models. A549-luc lung cancer cells were injected into nude mice in all three groups, and tumor growth was induced with a xenograft model. For xenograft administration, 100 μL of 5 × 10^6 A549-luc cell suspension was injected subcutaneously into nude mice. After cell application to nude mice, it was determined whether there was cancer or not by imaging with the IVIS device. After the cancer groups were formed, the treatment phase was started. Compound 4(X) substance, compound 3(Y), and cancer control groups were formed, five in each group. Each prepared sample was given to the animals by tail vein administration, three doses (as described in Section 2.3) per week, and the IVIS images taken at 5 min after luciferin (200 μL of 12 mg/mL stock administered […]) at certain time intervals were evaluated. Although no tumor was detected on the 15th day after cell implantation, the treatment was continued for two more weeks and whether the tumor recurred or not was determined by IVIS imaging.
# [2] = Weight and survival of tumor-bearing nude mice during and after treatment; assay type: in vivo; details: for weight of nude mice: individual mice (1)-(5); for survival of tumor-bearing nude mice: five mice per group, observed for 60 days
# Procedure: as §1, with “Male” for “Approval for monitoring the cancer treatment potential of the synthesized structures in vivo conditions was taken by the Animal Ethics Committee of Ege University on 24.01.2018 with the number 2018-015. Male”
# as §2, with “Compound 4(X) substance, compound 3(Y), and cancer control groups were formed, five in each group.” left out, “evaluated.” for “evaluated. Although no tumor was detected on the 15th day after cell implantation, the treatment was continued for two more weeks and whether the tumor recurred or not was determined by IVIS imaging.”
# CD1 mice = experiment: Acute toxicity study; assay type: in vivo; details: 200 μM, 100 μL intravenously once, 2 females and 2 males, 14 days
# HeLa cell lines = test system: HeLa cell lines; design: method as in PMID 31759659; details: 48 h; cited from earlier work
# [3] = 28 day subacute toxicity study, blood biochemical parameters; details: for ALB / ALT / AST / TBIL: 200 μM group, 100 μL i.v. 3 times a week for 4 weeks, blood
# [4] = 7 days, 200 μM, 20 μL tail vein, three doses a week
# [5] = 3 days, 200 μM, 20 μL tail vein, three doses a week, in g (unit assumed)
# [6] = 7 days, 200 μM, 20 μL tail vein, three doses a week, in g (unit assumed)
# [7] = 10 days, 200 μM, 20 μL tail vein, three doses a week, in g (unit assumed)
# [8] = 15 days, 200 μM, 20 μL tail vein, three doses a week, in g (unit assumed)
# [9] = 200 μM, 20 μL tail vein, three doses a week
# [10] = initially, 200 μM in DMSO, 20 μL tail vein, three doses a week, in g (unit assumed)
SMILES,"tumor size [1, 4]",tumor size ([1]; 15 days),tumor size ([1]; 45 days),tumor outcome after treatment [1],tumor size initially [1],"weight of nude mice [2, 5]","weight of nude mice [2, 6]","weight of nude mice [2, 7]","weight of nude mice [2, 8]","survival of tumor-bearing nude mice [2, 9]","weight of nude mice [2, 10]",abnormalities in the behavior of the mice (CD1 mice),IC50 (HeLa cell lines),ALB [3],ALT [3],AST [3],TBIL [3],other results
CC(=O)O[C@@H]1[C@@H]2C(=O)N(Cc3ccccc3)C(=O)[C@@H]2C=C[C@H]1Cl [compound 4],Tnd ^a,Tnd ^a and Ex,Tnd ^a and Ex,completely destroyed,570.91 mm^3 and 403.71 mm^3 and 482.52 mm^3 and 1518.02 mm^3 and 1124.09 mm^3,29.17 and 26.62 and 29.35 and 24.80 and 28.90,33.10 and 30.76 and 32.46 and 25.32 and 30.89,31.71 and 30.85 and 31.40 and 27.13 and 31.24,35.20 and 32.46 and 31.25 and 28.34 and 32.30,became Ex after 15 days; also recorded: found Ex in their cages after the 3rd dose; also recorded: four nude mice were dead; also recorded: showed Ex after the third dose,24.57 and 22.94 and 24.50 and 23.01 and 24.01,no abnormalities,141 µM,2.63 ± 0.07,57.5 ± 0.71,94.5 ± 3.54,0.03 ± 0.03,"weight of nude mice ([2]; 20 days, Ex = dead): 37.08 and Ex; weight of nude mice ([2]; 30 days, Ex = dead): 35.54 and Ex; weight of nude mice ([2]; 40 days, treatment discontinued on day 30, Ex = dead): 34.30 and Ex; weight of nude mice ([2]; 50 days, treatment discontinued on day 30, Ex = dead): 30.41 and Ex; weight of nude mice ([2]; 60 days, treatment discontinued on day 30, Ex = dead): 32.95 and Ex"
CC(=O)O[C@H]1C=C[C@H](OC(C)=O)[C@H]2C(=O)N(Cc3ccccc3)C(=O)[C@H]21 [compound 3],Tnd,Tnd,Tnd,completely destroyed,404.93 mm^3 and 301.26 mm^3 and 424.93 mm^3 and 731.33 mm^3 and 600.97 mm^3,26.25 and 24.90 and 23.54 and 27.20,28.50 and 25.42 and 24.87 and 29.26 and 30.77,28.52 and 25.98 and 25.89 and 30.26 and 32.07,31.02 and 28.50 and 26.43 and 32.30 and 33.71,did not die; also recorded: survived for 60 days,23.58 and 24.10 and 22.14 and 22.18 and 24.24,no abnormalities,149 µM,2.34 ± 0.05,60.5 ± 6.36,114 ± 9.90,0.02 ± 0.01,"weight of nude mice ([2]; 20 days, Ex = dead, in g (unit assumed)): 32.60 and 30.60 and 28.70 and 33.78 and 36.05; weight of nude mice ([2]; 30 days, Ex = dead, in g (unit assumed)): 30.90 and 29.40 and 32.96 and 34.86; weight of nude mice ([2]; 40 days, treatment discontinued on day 30, Ex = dead, in g (unit assumed)): 30.81 and 31.30 and 30.31 and 32.30 and 34.31; weight of nude mice ([2]; 50 days, treatment discontinued on day 30, Ex = dead, in g (unit assumed)): 30.91 and 33.40 and 31.25 and 33.12 and 34.65; weight of nude mice ([2]; 60 days, treatment discontinued on day 30, Ex = dead, in g (unit assumed)): 32.39 and 34.65 and 32.60 and 33.37 and 35.95; increase of AST level compared with the control group ([3]; 1st dose (200 μM) groups): more than the increase related to 4"
